Solubility data for 10 molecules are collected here from the OPERA property sets (Mansouri et al. 2018).

In brackets after ≈: the same amount, converted by molar mass.

As usually defined, the solubility is how much of the substance goes into solution per volume. A higher solubility goes with a readily soluble substance. As for `C=C[C@H]1C[N@@]2CC[C@H]1C[C@H]2C12Nc3ccccc3C1(O)CCO2` (stereo not given in full), the solubility was determined as 2.14 mM (≈ 667 µg/mL). This counts as millimolar.

On to `S=P(N1CC1)(N1CC1)N1CC1`, for which, where the note is “25 °C”, the solubility was found to be 1000 mM (≈ 190000 µg/mL).

Molecule `CCCCN(CCN(CCCC)C(=O)N1CCOCC1)C(=O)N1CCOCC1` showed a solubility of 1250 mM (≈ 500000 µg/mL).

Where the note is “25 °C”, `Nc1ncnc2c1ncn2[C@]1(CO)O[C@H](CO)[C@@H](O)[C@H]1O` had a solubility of 26.9 mM (≈ 8000 µg/mL).

With `O=C(OC(=O)c1ccccc1)c1ccccc1`, the solubility (25 °C) worked out at 0.0442 mM (≈ 10 µg/mL).

The molecule `O=C(OCCOCCO)c1ccccc1Nc1cccc(C(F)(F)F)c1` displayed a solubility (22 °C) of 0.00433 mM (≈ 1.6 µg/mL).

With `O=CNc1ccccc1`, the solubility (25 °C) stood at 210 mM (≈ 25400 µg/mL).

`CC(O)C(Cl)(Cl)Cl` (stereo not given) had a solubility of 175 mM (≈ 28600 µg/mL).

Consider `C[C@H]1O[C@H](O[C@H]2CC[C@H](n3ccc(NC(=O)c4ccc(NC(=O)[C@@](C)(N)CO)cc4)nc3=O)O[C@@H]2C)[C@H](O)[C@@H](O)[C@@H]1N(C)C`, for which the solubility (25 °C) came to 3.23 mM (≈ 2000 µg/mL).

As to `CCCC(C)(COC(N)=O)COC(=O)NC(C)C` (stereo not given), the solubility (25 °C) was found to be 1.15 mM (≈ 300 µg/mL).
